Tests used:
HOP-92 = experiment: NCI-60 screening (SRB); assay type: cell-based, human; settings: five-dose
MCF7 = experiment: NCI-60 screening (SRB); assay type: cell-based, human; settings: five-dose
NCI-H522 = experiment: NCI-60 screening (SRB); assay type: cell-based, human; settings: five-dose
SK-MEL-2 = experiment: NCI-60 screening (SRB); assay type: cell-based, human; settings: five-dose
SF-539 = experiment: NCI-60 screening (SRB); assay type: cell-based, human
HS 578T = experiment: NCI-60 screening (SRB); assay type: cell-based, human; settings: five-dose
SK-OV-3 = experiment: NCI-60 screening (SRB); assay type: cell-based, human; settings: five-dose
UO-31 = experiment: NCI-60 screening (SRB); assay type: cell-based, human; settings: five-dose
MDA-MB-31/ATCC = experiment: NCI-60 screening (SRB); assay type: cell-based, human; settings: five-dose
OVCAR-5 = experiment: NCI-60 screening (SRB); assay type: cell-based, human; settings: five-dose
IGROV1 = experiment: NCI-60 screening (SRB); assay type: cell-based, human
COLO 205 = experiment: NCI-60 screening (SRB); assay type: cell-based, human; settings: five-dose
SF-295 = experiment: NCI-60 screening (SRB); assay type: cell-based, human; settings: five-dose
T-47D = experiment: NCI-60 screening (SRB); assay type: cell-based, human; settings: five-dose
PC-3 = experiment: NCI-60 screening (SRB); assay type: cell-based, human; settings: five-dose
NCI-H460 = experiment: NCI-60 screening (SRB); assay type: cell-based, human; settings: five-dose
K-562 = experiment: NCI-60 screening (SRB); assay type: cell-based, human
SN12C = experiment: NCI-60 screening (SRB); assay type: cell-based, human; settings: five-dose
CNS cancer = experiment: cells; assay type: cell-based
Source text: The experimental data allow the assessment of the cytostatic effect, indicated by growth inhibition values ranging between 0 and 100, as well as of the cytotoxic effect, indicated by negative values.
The mean GI50 (molar concentration of the compound that inhibits 50% net cell growth), TGI (molar concentration of the compound leading to the total inhibition), and LC50 (molar concentration of the compound leading to 50% net cell death (presented in negative logarithm)) values across each cell line are shown in Table 2.
The selectivity index (SI), calculated as the ratio between the full panel MG_MID60 (μM) of compounds 4, 6, and 9 by their respective subpanels MG_MID of the cell line (μM), was introduced as a quantification tool for the selectivity of each compound in terms of anticancer effect (Table 3).
Primary anticancer assays were performed according to the NCI protocol, as described elsewhere (see e.g., http://dtp.nci.nih.gov accessed on 1 November 2018). The compounds were added at a single concentration, and the cell cultures were incubated for 48 h. The end point determinations were made with a protein-binding dye, sulforhodamine B (SRB). […] The percentage of growth was evaluated spectrophotometrically versus controls not treated with test agents after 48 h exposure and using SRB protein assay to estimate cell viability or growth. Three antitumor activity dose-response parameters were calculated for each cell line. Furthermore, mean graph midpoints (MG_MID) were calculated for each of the parameters, giving an average activity parameter over all cell lines for the tested compound. For the MG_MID calculation, insensitive cell lines were included with the highest concentration tested.

RPMI-8226 = experiment: NCI-60 screening (SRB); assay type: cell-based, human; settings: five-dose
OVCAR-4 = experiment: NCI-60 screening (SRB); assay type: cell-based, human; settings: five-dose
BT-549 = experiment: NCI-60 screening (SRB); assay type: cell-based, human; settings: five-dose
NCI/ADR-RES = experiment: NCI-60 screening (SRB); assay type: cell-based, human; settings: five-dose
MDA-MB-468 = experiment: NCI-60 screening (SRB); assay type: cell-based, human; settings: five-dose
U251 = experiment: NCI-60 screening (SRB); assay type: cell-based, human; settings: U251, five-dose
UACC-62 = experiment: NCI-60 screening (SRB); assay type: cell-based, human; settings: five-dose
SNB-19 = experiment: NCI-60 screening (SRB); assay type: cell-based, human; settings: five-dose
[1] = Homo sapiens, read-out: LC50 (the source's name)

## CCN1CCN(C(=O)[C@]23CC[C@@H](C)[C@H](C)[C@H]2C2=CC[C@@H]4[C@@]5(C)CCC(=O)C(C)(C)[C@@H]5CC[C@@]4(C)[C@]2(C)CC3)CC1 [Compound 4, N-(3-oxo-ursan-12-en-28-oyl)-ethylpiperazine]
HOP-92; Homo sapiens
  GI50: 713 nM
HOP-92; [1]
  CC50: 8220 nM
HOP-92
  TGI: 2060 nM
MCF7; Homo sapiens
  GI50: 892 nM
MCF7; [1]
  CC50: 4630 nM
MCF7
  TGI: 2030 nM
NCI-H522; Homo sapiens
  GI50: 831 nM
NCI-H522; [1]
  CC50: 3690 nM
NCI-H522
  TGI: 1750 nM
SK-MEL-2; Homo sapiens
  GI50: 1290 nM
SK-MEL-2; [1]
  CC50: 16200 nM
SK-MEL-2
  TGI: 3330 nM
SF-539; Homo sapiens, SF-539, five-dose
  GI50: 843 nM
SF-539; Homo sapiens, SF-539, five-dose, read-out: LC50 (the source's name)
  CC50: 2800 nM
SF-539; SF-539, five-dose
  TGI: 1540 nM
SF-539; SF-539 CNS cancer, 1 dose 10 µM
  Growth %: −97.21%
HS 578T; Homo sapiens
  GI50: 1070 nM
HS 578T; [1]
  CC50: 26500 nM
HS 578T
  TGI: 2680 nM
SK-OV-3; Homo sapiens
  GI50: 1150 nM
SK-OV-3; [1]
  CC50: 17200 nM
SK-OV-3
  TGI: 4830 nM
UO-31; Homo sapiens
  GI50: 726 nM
UO-31; [1]
  CC50: 2790 nM
UO-31
  TGI: 1420 nM
MDA-MB-31/ATCC; Homo sapiens
  GI50: 779 nM
MDA-MB-31/ATCC; [1]
  CC50: 2880 nM
MDA-MB-31/ATCC
  TGI: 1500 nM
OVCAR-5; Homo sapiens
  GI50: 907 nM
OVCAR-5; [1]
  CC50: 3870 nM
OVCAR-5
  TGI: 1870 nM
IGROV1; Homo sapiens, IGROV-1, five-dose
  GI50: 1040 nM
IGROV1; Homo sapiens, IGROV-1, five-dose, read-out: LC50 (the source's name)
  CC50: 19100 nM
IGROV1; five-dose
  TGI: 4850 nM
COLO 205; Homo sapiens
  GI50: 1020 nM
COLO 205; [1]
  CC50: 14500 nM
COLO 205
  TGI: 2370 nM
SF-295; Homo sapiens
  GI50: 820 nM
SF-295; [1]
  CC50: 3080 nM
SF-295
  TGI: 1590 nM
T-47D; Homo sapiens, T47D
  GI50: 1330 nM
  LC50 (concentration killing 50% of cells): > 50000 nM
T-47D
  TGI: 3890 nM
PC-3; Homo sapiens
  GI50: 875 nM
PC-3; [1]
  CC50: 18300 nM
PC-3
  TGI: 3170 nM
NCI-H460; Homo sapiens
  GI50: 913 nM
NCI-H460; [1]
  CC50: 3270 nM
NCI-H460
  TGI: 1750 nM
K-562; Homo sapiens, K562, five-dose
  GI50: 980 nM
K-562; Homo sapiens, K562, five-dose, read-out: LC50 (the source's name)
  CC50: 4840 nM
K-562; five-dose
  TGI: 2180 nM
SN12C; Homo sapiens
  GI50: 776 nM
SN12C; [1]
  CC50: 2810 nM
SN12C
  TGI: 1480 nM
CNS cancer; CNS cancer subpanel, five-dose
  TGI MG_MID: 2840 nM
CNS cancer; CNS cancer, MG_MID60/subpanel MG_MID
  SI (TGI): 0.96
CNS cancer; Homo sapiens, CNS cancer subpanel, five-dose, read-out: GI50 MG_MID
  GI50: 1030 nM
CNS cancer; Homo sapiens, CNS cancer subpanel, five-dose, read-out: LC50 MG_MID
  CC50: 8690 nM
RPMI-8226; Homo sapiens
  GI50: 809 nM
RPMI-8226; [1]
  CC50: 4900 nM
RPMI-8226
  TGI: 1990 nM
OVCAR-4; Homo sapiens
  GI50: 1260 nM
OVCAR-4; [1]
  CC50: 18000 nM
OVCAR-4
  TGI: 4740 nM
BT-549; Homo sapiens
  GI50: 833 nM
BT-549; [1]
  CC50: 3000 nM
BT-549
  TGI: 1580 nM
NCI/ADR-RES; Homo sapiens
  GI50: 1080 nM
NCI/ADR-RES; [1]
  CC50: 18300 nM
NCI/ADR-RES
  TGI: 3240 nM
MDA-MB-468; Homo sapiens
  GI50: 931 nM
MDA-MB-468; [1]
  CC50: 9270 nM
MDA-MB-468
  TGI: 2320 nM
U251; Homo sapiens, U-251
  GI50: 854 nM
U251; Homo sapiens, U-251, read-out: LC50 (the source's name)
  CC50: 4000 nM
U251
  TGI: 1850 nM
UACC-62; Homo sapiens
  GI50: 835 nM
UACC-62; [1]
  CC50: 3090 nM
UACC-62
  TGI: 1610 nM
SNB-19; Homo sapiens
  GI50: 849 nM
SNB-19; [1]
  CC50: 3470 nM
SNB-19
  TGI: 1720 nM

— PMC8536124 (International Journal of Molecular Sciences, 2021)
